Assay results: patent publication US4574126A, “Pyridine derivatives histamine H2 -antagonists” (Smith Kline & French Laboratories Limited, priority 1982, dated 1986)

Assays:
[1] = target: T1, histamine H2 -receptors (Rattus norvegicus, UniProt P25102); test: lumen-perfused rat test: inhibition of histamine-stimulated secretion of gastric acid; assay type: in vivo; conditions: iv, lumen-perfused stomachs of rats anaesthetised with urethane, read-out: ED50 (for inhibiting sub-maximal acid secretion by 50%)
T1 construct: histamine-stimulated secretion of gastric acid from the lumen-perfused stomachs of rats anaesthetised with urethane; from tissue; host or cells: lumen-perfused stomach of urethane-anaesthetised female Sprague-Dawley rats (in vivo)
T1 sequence (P25102 whole entry, the tested form may be a part): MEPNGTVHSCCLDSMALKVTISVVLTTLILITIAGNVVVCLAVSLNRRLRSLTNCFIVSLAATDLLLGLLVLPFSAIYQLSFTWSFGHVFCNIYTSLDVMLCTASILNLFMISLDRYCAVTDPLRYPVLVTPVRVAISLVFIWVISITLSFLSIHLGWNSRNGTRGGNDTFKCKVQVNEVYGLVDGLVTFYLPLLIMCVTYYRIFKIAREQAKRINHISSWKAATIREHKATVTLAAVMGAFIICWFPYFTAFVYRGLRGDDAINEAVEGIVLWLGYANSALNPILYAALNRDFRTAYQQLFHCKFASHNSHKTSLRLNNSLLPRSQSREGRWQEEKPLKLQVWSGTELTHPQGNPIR
Source text: These are actions of histamine which, according to Ash and Schild, Brit. J. Pharmac. Chemother. 27 247 (1966), are not mediated by histamine H1 -receptors.
Inhibition of histamine-stimulated secretion of gastric acid can be measured by using a lumen-perfused stomachs of rats anaesthetised with urethane using the following modification of the method of Ghosh and Schild, Brit. J. Pharmac. Chemother. 13 54 (1958):
Female Sprague-Dawley rats (160-200 g) are starved overnight and anaesthetised with urethane given intraperitoneally in one dose (200 mg). The trachea and jugular veins are both cannulated and a mid-line incision is made in the abdomen exposing the stomach which is cleared from connective tissue. […] The effluent is passed over a micro-flow pH electrode and recorded by a pH meter fed to an anti-log unit and flat-bed recorder. The basal output of acid secretion from the stomach is monitored by measurement of the pH of the perfusion effluent. A sub-maximal dose of histamine is continuously infused into the jugular vein and produces a stable plateau of acid secretion and the pH of the perfusion effluent is determined when this condition is obtained. […] The difference in acid secretion between basal output and the histamine stimulated plateau level and the reduction of acid secretion caused by the test compound are calculated from the difference in pH of the perfusion effluent. […]

[2] = target: T2, histamine H2 -receptors (Cavia porcellus, UniProt P47747); test: guinea pig atrium test: inhibition of histamine-induced tachycardia in isolated right atrium; assay type: biochemical; conditions: histamine-induced rate increase, 60 min contact, read-out: pA2 (converted)
T2 construct: a spontaneously beating isolated portion of the guinea pig right atrium; from tissue; host or cells: isolated guinea pig right atrium
T2 sequence (P47747 whole entry): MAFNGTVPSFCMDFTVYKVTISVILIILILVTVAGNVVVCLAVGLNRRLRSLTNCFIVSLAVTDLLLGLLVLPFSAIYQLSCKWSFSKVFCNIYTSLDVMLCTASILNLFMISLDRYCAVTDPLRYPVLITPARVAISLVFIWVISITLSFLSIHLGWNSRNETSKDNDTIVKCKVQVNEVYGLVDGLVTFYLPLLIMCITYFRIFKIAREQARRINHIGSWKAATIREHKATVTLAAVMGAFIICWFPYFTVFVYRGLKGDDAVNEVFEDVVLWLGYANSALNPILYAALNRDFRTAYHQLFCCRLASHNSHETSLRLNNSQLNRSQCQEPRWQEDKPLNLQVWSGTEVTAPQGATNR
Experimental: In the guinea pig atrium test a spontaneously beating isolated portion of the guinea pig right atrium is secured under tension (300 mg) between an anchorage and a transducer in a 15 ml tissue bath and immersed in McEwens solution with constant aeration at a temperature of 37° C. The output from the transducer is amplified. Output is in turn fed to a flat bed recorder. Measured amounts of histamine are added to the tissue bath so that the histamine concentration increases step-wise until the rate of beating reaches a maximum. The tissue bath is washed out and filled with fresh McEwens solution containing compound under test. The solution is left in contact with the tissue for 60 min. and measured amounts of histamine are added again until a maximum rate is recorded. The assay is repeated with increasing concentrations of test compound and the dose of histamine giving 50% of maximum rate is noted. A dose ratio (DR) was calculated by comparing the concentrations of histamine required to produce 50% maximum response in the absence and in the presence of the antagonist. A plot of Log DR-1 against LOG D (the concentration of compound under test) is made and the point of intersection with the Log (DR-1) ordinate is taken as the measure of the activity (pA2 value).

Row | Compound | ED50 [1] | Kb [2]
1 | CNC(=C[N+](=O)[O-])NCCSCc1cc(CN(C)C)ccn1 [Example 2, 1-nitro-2-methylamino-2-[2-(4-dimethylaminomethyl-2-pyridylmethylthio)ethylamino]-ethylene] | < 0.1 µmol/kg | < 100 nM
2 | CNC(=NCCSCc1cc(CN(C)C)ccn1)NC#N [Example 1, N-cyano-N'-methyl-N"-[2-(4-dimethylaminomethyl-2-pyridylmethylthio)ethyl]-guanidine] | < 0.1 µmol/kg | < 100 nM
